Measured values as given in patent publication US6087376A (priority 1998, dated 2000).
Entries after “also recorded” stand apart in the source; their conditions may differ.

Columns and labels:
[1] = tested on: learning and memory; settings: in vivo; cited from earlier work
[2] = target: central nicotinic receptors; settings: read-out: Ki, displacement of [3H]nicotine binding; cited from earlier work
[3] = tested on: tobacco smoking cessation; settings: short-term use as smoking deterrent; cited from earlier work
[4] = tested on: nicotine-evoked [3H]dopamine release from rat striatal slices; nicotinic receptors; test: Lobeline inhibition of nicotine-evoked [3H]DA release from rat striatal slices; assay type: cell-based; settings: low concentrations
Description: Striatal slices were obtained from rat brain, preincubated with [^3 H]dopamine (0.1 μM) for 30 min and subsequently superfused with Kreb's buffer for 60 min.

[5] = tested on: mouse striatal synaptosomes; settings: cited from earlier work
[6] = tested on: tachycardia and hypertension; settings: in vivo; cited from earlier work
[7] = tested on: conditioned place preference in rats; settings: rat, in vivo; cited from earlier work
[8] = tested on: rat striatal synaptosomes; settings: cited from earlier work
[9] = tested on: rat striatal slices; test: Endogenous DA and DOPAC content in striatal slices following superfusion with lobeline; assay type: cell-based
Description: Data are presented as mean±S.E. ng/mg protein. *P<0.05, different from control, P<0.05, **P<0.001, different from control; Dunnett's post hoc test. n=8 rats.
At the end of the superfusion experiment, slices were processed in the endogenous DA and DOPAC content assay described below.
(§1) An aliquot (500 μL) of 0.1 M perchloric acid (pH 1.0) containing 0.14-0.29 μM 3,4-dihydroxybenzylamine hydrobromide (DHBA, internal standard) was added to 100 mg of striatum and the mixture was sonicated with an Ultrasonic Processor (40-Watt Model, Sonics & Materials, Danbury, Conn.). The homogenate was centrifuged at 30,000×g for 10 min at 4° C., and the supernatant was filtered (0.2 μm nylon membrane). An aliquot (50 μL) of the filtrate (1:1, 1:50, 1:100, 1:200 or 1:500 dilution with 0.1 M perchloric acid) was injected onto the high pressure liquid chromatograph with electrochemical detection (HPLC-EC) system. The HPLC-EC system consisted of syringe loading injector (Model 7725, Rheodyne L. P., Cotati, Calif.), Beckman Model 116 HPLC pump (Beckman, Fullerton, Calif.), ESA ODS ultrasphere C18 reverse-phase column ([…]×75 mm, 3 micron particle size, ESA, Bedford, Mass.), and an ESA 5100A coulometric electrochemical detector with a model 5011 detector cell (E1=+0.05 V, E2=+0.32 V). The eluent was 6% acetonitrile, 10 μM EDTA, 1.4 mM 1-octane-sulfonic acid and 76 mM sodium phosphate monobasic (pH 3.1). All separations were performed at room temperature at a flow rate of 1 ml/min. Complete separation of DA and DOPAC and reequilibration of the system required 9 min. The retention time of DA, DOPAC and DHBA standards was used to identify the relevant peak. Peak heights were used to calculate the detected amount of compound based on standard curves. The detection limit of DA and DOPAC was 0.2 and 0.05 pg/50 μL injected, respectively. Recovery of internal standard was routinely 75%.

[10] = cited from earlier work
[11] = tested on: anxiolytic activity; settings: in vivo; cited from earlier work
[12] = tested on: locomotor activity in rats; settings: rat, in vivo; cited from earlier work
[13] = tested on: rat striatum; test: Striatal DA and DOPAC content after in vivo administration of lobeline
Source text: Male Sprague-Dawley rats (200-250 g) were obtained from Harlan Laboratories (Indianapolis, Ind.) and were housed two per cage with free access to food and water in the Division of Lab Animal Resources at the College of Pharmacy at the University of Kentucky. Experimental protocols involving the animals were in strict accordance with the NIH Guide for the Care and Use of Laboratory Animals and were approved by the Institutional Animal Care and Use Committee at the University of Kentucky.
Rats were killed 24 hrs after the last injection and striata were obtained immediately for determination of endogenous DA and DOPAC content. […] Striata were obtained for endogenous DA and DOPAC content determination 21 days after osmotic minipump implantation. Lobeline dose was expressed in terms of mg of lobeline hemisulfate salt per kg body weight.
as §1

[14] = tested on: nicotinic receptors in mouse brain; settings: in vivo; cited from earlier work
[15] = chronic, 30 mg/kg/day s.c. osmotic minipump, 21 days
[16] = intermittent, 3 mg/kg s.c. once daily for 10 days
[17] = intermittent, 10 mg/kg s.c. once daily for 10 days

Q: With CN1[C@@H](CC(=O)c2ccccc2)CCC[C@H]1C[C@H](O)c1ccccc1 [Lobeline, 2-[G-(β-hydroxyphenethyl)-1-methyl-2-piperidyl]-acetophenone] as the compound, how does the learning and memory [1] read?
A: improvement of learning and memory

Q: And the Ki [2]?
A: 5 to 30 nM

Q: And the acute toxicity [3]?
A: nausea, severe heartburn and dizziness

Q: And the “concentrations inhibiting nicotine-evoked DA release” value [4]?
A: 0.1 to 1 µM

Q: And the “DA release from superfused striatal synaptosomes” value [5]?
A: increase DA release

Q: What about the cardiovascular effects [6] of the same compound?
A: tachycardia and hypertension

Q: What about the conditioned place preference [7] of the same compound?
A: does not produce conditioned place preference; also recorded: does not increase locomotor activity (Stolerman et al., 1995) or produce conditioned place preference

Q: And the “DA release from superfused striatal synaptosomes” value [8]?
A: increase DA release

Q: What about the “DOPAC overflow from rat striatal slices” value [9] of the same compound?
A: DOPAC overflow from rat striatal slices is observed

Q: And the “effect on DA or DOPAC content in superfused slices” value ([9]; lobeline 0.1-10 μM, 60 min)?
A: did not alter DA or DOPAC content

Q: And the “effect on endogenous DA content in superfused slices” value ([9]; lobeline 30-100 μM, 60 min)?
A: significantly depleted endogenous DA content

Q: And the “effect on endogenous DOPAC content in superfused slices” value ([9]; lobeline 30-100 μM, 60 min)?
A: increased DOPAC content

Q: What about the pKa [10] of the same compound?
A: 8.3

Q: And the anxiolytic activity [11]?
A: anxiolytic activity

Q: What about the locomotor activity [12] of the same compound?
A: does not increase locomotor activity

Q: And the “striatal DA content” value ([13]; acute, 1 mg/kg s.c., 1 hr)?
A: 756 ± 111 ng/mg protein

Q: And the “striatal DOPAC content” value ([13]; acute, 1 mg/kg s.c., 1 hr)?
A: 81 ± 12 ng/mg protein

Q: And the “striatal DA content” value ([13]; acute, 3 mg/kg s.c., 1 hr)?
A: 761 ± 103 ng/mg protein

Q: And the “striatal DOPAC content” value ([13]; acute, 3 mg/kg s.c., 1 hr)?
A: 89 ± 15 ng/mg protein

Q: And the “striatal DA content” value ([13]; acute, 10 mg/kg s.c., 1 hr)?
A: 841 ± 76 ng/mg protein

Q: What about the “striatal DOPAC content” value ([13]; acute, 10 mg/kg s.c., 1 hr) of the same compound?
A: 82 ± 8 ng/mg protein

Q: What about the “striatal DA content” value ([13]; acute, 30 mg/kg s.c., 1 hr) of the same compound?
A: 665 ± 126 ng/mg protein

Q: And the “striatal DOPAC content” value ([13]; acute, 30 mg/kg s.c., 1 hr)?
A: 72 ± 10 ng/mg protein

Q: And the “effect on striatal DA or DOPAC content in vivo” value ([13]; any dose or treatment regimen)?
A: did not significantly alter

Q: And the “striatal DA content” value [13, 15]?
A: 856 ± 144 ng/mg protein

Q: And the “striatal DOPAC content” value [13, 15]?
A: 62 ± 10 ng/mg protein

Q: And the “striatal DA content” value [13, 16]?
A: 778 ± 27 ng/mg protein

Q: And the “striatal DOPAC content” value [13, 16]?
A: 57 ± 12 ng/mg protein

Q: And the “striatal DA content” value [13, 17]?
A: 800 ± 41 ng/mg protein

Q: And the “striatal DOPAC content” value [13, 17]?
A: 57 ± 3 ng/mg protein

Q: What about the “number of nicotinic receptors after chronic treatment” value [14] of the same compound?
A: did not increase the number of nicotinic receptors
